According to ChEMBL document CHEMBL1201862, “PubChem BioAssay data set” (2004):
Values belong to the molecule of their own block, whether it stands above or below them. Activity calls are given as the source filed them.

Experiments:
[1] = biological target: RNA-editing ligase 1, mitochondrial (Trypanosoma brucei brucei, UniProt P86926); assay: TbREL1 ligase inhibitors, dose response, biochemical, fluorescence, Trypanosoma brucei (AID 1117295); assay type: functional
[2] = biological target: T1, Mannose-6-phosphate isomerase (Homo sapiens, UniProt P34949); assay: human PMI inhibitors, high substrate, primary screen, biochemical, fluorescence intensity, high mannose 6-phosphate (AID 1220)
T1 sequence (P34949 whole entry): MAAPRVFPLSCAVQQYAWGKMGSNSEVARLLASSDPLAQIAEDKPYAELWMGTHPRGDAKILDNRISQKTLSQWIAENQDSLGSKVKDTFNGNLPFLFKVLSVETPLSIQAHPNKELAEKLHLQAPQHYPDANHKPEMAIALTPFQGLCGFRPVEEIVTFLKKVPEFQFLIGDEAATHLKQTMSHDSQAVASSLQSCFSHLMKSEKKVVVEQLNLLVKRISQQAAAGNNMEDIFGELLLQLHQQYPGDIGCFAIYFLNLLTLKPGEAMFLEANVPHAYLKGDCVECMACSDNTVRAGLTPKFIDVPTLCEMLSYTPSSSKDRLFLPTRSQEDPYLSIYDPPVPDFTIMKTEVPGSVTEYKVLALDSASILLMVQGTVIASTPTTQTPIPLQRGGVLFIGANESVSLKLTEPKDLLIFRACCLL

[3] = biological target: Mitogen-activated protein kinase 8 (Homo sapiens, UniProt P45983); assay type: functional;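 also: value comes from one member of a kinome-wide kinase profiling panel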
[4] = biological target: Serine/threonine-protein kinase pim-2 (Homo sapiens, UniProt Q9P1W9); assay type: functional;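 also: value comes from a broad kinase panel profiling study in which PIM2 was one of the panel members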
Serine/threonine-protein kinase pim-2, sequence (Q9P1W9 whole entry): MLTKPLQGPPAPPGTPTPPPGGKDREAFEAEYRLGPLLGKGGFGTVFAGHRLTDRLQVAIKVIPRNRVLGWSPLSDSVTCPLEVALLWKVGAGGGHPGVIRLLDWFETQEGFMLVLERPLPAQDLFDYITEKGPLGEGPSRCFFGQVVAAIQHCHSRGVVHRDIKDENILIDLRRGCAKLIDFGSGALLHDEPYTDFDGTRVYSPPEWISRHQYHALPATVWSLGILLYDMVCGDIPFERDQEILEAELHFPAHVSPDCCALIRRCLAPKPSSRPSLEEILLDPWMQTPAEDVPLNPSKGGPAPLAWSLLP

[5] = biological target: MAP kinase-activated protein kinase 2 (Homo sapiens, UniProt P49137); assay type: functional;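 also: measured as one member of a kinome-wide kinase panel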
[6] = biological target: Serine/threonine-protein kinase D2 (Homo sapiens, UniProt Q9BZL6); assay type: functional;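 also: measured against PRKD2 as one member of a kinome-wide kinase profiling panel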
Serine/threonine-protein kinase D2, sequence (Q9BZL6 whole entry, the tested form may be a part): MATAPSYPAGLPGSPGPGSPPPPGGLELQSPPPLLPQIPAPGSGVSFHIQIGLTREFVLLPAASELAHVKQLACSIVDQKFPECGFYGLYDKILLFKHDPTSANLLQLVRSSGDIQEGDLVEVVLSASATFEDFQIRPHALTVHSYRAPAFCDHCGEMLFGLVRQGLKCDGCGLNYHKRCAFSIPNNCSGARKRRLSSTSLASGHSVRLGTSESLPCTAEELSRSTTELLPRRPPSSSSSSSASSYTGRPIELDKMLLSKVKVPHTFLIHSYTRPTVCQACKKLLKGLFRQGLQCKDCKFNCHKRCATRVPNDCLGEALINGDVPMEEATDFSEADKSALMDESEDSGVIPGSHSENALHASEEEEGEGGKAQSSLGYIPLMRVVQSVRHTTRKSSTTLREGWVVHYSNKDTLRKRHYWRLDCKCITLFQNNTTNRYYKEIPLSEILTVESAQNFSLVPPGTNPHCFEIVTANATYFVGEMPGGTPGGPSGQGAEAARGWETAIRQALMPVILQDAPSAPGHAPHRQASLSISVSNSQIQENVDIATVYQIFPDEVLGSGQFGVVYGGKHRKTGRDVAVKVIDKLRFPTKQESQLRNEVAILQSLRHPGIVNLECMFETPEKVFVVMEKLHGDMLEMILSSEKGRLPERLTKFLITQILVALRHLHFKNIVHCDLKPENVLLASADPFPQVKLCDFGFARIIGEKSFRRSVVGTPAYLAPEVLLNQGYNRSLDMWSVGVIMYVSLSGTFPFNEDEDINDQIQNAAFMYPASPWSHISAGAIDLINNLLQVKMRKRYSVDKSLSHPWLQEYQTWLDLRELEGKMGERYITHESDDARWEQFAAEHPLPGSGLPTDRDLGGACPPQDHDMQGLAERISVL

LIM domain kinase 1 = LIM domain kinase 1 (Homo sapiens, UniProt P53667); assay: Navigating the Kinome. Panel member name: LIMK1; assay type: functional
[7] = biological target: Dual specificity tyrosine-phosphorylation-regulated kinase 1A (Homo sapiens, UniProt Q13627); assay type: functional;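 also: measured against DYRK1A as one member of a broad kinome profiling panel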
[8] = biological target: Rho-associated protein kinase 1 (Homo sapiens, UniProt Q13464); assay type: functional;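 also: measured within a broad kinome-wide panel profiling many kinases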
Rho-associated protein kinase 1, sequence (Q13464 whole entry): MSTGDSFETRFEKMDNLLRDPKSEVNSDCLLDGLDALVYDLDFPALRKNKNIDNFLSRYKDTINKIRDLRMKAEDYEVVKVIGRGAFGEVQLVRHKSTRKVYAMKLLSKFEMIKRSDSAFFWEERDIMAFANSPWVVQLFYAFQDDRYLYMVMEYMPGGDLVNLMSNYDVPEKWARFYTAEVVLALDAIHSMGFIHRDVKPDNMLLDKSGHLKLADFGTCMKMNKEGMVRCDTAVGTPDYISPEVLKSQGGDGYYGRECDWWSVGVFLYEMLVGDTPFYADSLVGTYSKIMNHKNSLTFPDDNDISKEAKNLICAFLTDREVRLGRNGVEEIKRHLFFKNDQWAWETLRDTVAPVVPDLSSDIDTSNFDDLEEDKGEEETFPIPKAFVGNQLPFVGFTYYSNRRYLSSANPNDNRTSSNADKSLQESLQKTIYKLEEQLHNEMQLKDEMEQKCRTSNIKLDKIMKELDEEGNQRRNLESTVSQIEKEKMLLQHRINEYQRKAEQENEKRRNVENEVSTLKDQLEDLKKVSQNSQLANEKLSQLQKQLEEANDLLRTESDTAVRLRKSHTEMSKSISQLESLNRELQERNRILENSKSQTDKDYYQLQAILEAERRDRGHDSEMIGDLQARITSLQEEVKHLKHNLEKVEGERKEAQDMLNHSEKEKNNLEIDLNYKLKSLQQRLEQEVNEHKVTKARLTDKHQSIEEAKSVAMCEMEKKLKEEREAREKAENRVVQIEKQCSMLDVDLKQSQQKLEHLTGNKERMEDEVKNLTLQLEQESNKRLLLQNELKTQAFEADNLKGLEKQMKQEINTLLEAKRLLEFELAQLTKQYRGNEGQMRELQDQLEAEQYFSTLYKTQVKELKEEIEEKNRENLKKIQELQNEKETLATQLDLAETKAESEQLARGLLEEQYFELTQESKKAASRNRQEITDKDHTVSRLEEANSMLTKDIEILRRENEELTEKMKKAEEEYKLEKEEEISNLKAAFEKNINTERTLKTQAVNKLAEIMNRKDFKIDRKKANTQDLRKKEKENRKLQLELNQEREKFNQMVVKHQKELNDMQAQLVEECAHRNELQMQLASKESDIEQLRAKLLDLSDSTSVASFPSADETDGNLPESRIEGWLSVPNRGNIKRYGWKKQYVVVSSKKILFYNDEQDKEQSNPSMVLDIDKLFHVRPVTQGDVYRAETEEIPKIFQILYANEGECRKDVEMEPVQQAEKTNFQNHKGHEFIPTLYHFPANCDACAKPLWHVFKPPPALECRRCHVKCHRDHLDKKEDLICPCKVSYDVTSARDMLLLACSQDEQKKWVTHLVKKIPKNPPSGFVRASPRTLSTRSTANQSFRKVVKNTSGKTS

[9] = biological target: Mitogen-activated protein kinase 13 (Homo sapiens, UniProt O15264); assay type: functional
Mitogen-activated protein kinase 13, sequence (O15264 whole entry): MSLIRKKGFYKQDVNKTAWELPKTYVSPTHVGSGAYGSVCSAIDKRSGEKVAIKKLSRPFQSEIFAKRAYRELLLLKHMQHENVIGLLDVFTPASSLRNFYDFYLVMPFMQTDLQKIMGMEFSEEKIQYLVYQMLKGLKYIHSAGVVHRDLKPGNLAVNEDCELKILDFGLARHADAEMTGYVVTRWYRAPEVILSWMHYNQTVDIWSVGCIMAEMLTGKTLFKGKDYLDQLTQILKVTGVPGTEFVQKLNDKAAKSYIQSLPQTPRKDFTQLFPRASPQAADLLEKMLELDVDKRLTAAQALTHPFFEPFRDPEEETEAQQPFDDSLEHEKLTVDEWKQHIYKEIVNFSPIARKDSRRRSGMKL

Aurora kinase A = Aurora kinase A (Homo sapiens, UniProt O14965); assay type: functional;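 also: value from the Navigating the Kinome kinase panel profiling, panel entry STK6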
[10] = biological target: Tyrosine-protein kinase Lck (Homo sapiens, UniProt P06239); assay type: functional;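 also: lck was assayed as one member of a kinase panel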
Tyrosine-protein kinase Lck, sequence (P06239 whole entry): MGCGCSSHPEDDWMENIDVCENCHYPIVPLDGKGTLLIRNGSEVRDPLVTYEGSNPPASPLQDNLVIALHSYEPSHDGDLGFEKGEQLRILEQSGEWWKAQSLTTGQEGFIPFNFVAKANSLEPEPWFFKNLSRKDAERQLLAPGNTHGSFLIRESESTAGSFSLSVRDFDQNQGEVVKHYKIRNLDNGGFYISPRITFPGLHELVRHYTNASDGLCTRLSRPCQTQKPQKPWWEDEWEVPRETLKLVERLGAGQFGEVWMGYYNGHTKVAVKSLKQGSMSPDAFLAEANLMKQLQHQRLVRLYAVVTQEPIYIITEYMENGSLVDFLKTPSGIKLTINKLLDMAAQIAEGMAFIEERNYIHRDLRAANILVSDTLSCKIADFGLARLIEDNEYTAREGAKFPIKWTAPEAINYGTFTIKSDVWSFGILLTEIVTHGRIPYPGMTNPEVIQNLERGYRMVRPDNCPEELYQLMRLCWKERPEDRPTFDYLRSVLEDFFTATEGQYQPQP

[11] = biological target: Proto-oncogene tyrosine-protein kinase Src (Homo sapiens, UniProt P12931); assay type: functional;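 also: SRC entry within a kinome-wide kinase profiling panel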
Proto-oncogene tyrosine-protein kinase Src, sequence (P12931 2-536 limits assumed): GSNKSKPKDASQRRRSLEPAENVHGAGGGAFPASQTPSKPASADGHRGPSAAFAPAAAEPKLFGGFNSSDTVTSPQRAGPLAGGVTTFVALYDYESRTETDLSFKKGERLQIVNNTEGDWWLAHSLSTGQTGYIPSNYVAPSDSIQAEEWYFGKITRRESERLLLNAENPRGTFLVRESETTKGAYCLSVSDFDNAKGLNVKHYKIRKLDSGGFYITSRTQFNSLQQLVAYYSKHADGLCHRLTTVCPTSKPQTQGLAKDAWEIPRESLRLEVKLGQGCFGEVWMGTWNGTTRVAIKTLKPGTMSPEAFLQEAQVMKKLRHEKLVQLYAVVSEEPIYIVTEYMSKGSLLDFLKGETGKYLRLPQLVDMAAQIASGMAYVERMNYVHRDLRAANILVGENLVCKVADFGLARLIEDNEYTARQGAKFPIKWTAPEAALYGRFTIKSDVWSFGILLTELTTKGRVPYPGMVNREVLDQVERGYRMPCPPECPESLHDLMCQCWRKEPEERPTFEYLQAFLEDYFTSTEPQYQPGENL

[12] = biological target: Casein kinase II subunit alpha (Homo sapiens, UniProt P68400); assay type: functional
Casein kinase II subunit alpha, sequence (P68400 whole entry): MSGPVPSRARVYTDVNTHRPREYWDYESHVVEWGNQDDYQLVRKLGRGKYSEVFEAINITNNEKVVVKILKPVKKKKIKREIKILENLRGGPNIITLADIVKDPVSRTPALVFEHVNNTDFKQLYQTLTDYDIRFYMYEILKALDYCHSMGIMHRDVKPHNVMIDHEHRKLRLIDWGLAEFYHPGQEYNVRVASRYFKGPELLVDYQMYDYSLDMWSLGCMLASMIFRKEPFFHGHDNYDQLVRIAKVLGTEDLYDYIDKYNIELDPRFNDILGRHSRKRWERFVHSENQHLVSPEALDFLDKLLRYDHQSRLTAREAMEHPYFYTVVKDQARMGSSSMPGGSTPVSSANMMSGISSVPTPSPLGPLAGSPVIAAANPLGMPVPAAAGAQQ

[13] = biological target: Serine/threonine-protein kinase Nek2 (Homo sapiens, UniProt P51955); assay type: functional
Serine/threonine-protein kinase Nek2, sequence (P51955 whole entry): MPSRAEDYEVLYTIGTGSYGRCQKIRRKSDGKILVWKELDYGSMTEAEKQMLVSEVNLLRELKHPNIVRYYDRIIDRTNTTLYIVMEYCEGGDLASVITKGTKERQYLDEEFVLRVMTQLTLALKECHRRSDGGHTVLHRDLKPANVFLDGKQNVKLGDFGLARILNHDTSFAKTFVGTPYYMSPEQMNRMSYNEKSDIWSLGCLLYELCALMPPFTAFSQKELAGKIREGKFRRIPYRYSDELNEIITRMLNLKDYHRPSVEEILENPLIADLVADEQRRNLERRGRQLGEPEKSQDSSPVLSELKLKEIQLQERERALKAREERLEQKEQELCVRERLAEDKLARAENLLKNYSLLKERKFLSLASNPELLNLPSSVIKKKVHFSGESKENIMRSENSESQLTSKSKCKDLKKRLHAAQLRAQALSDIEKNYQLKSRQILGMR

[14] = biological target: Vascular endothelial growth factor receptor 2 (Homo sapiens, UniProt P35968); assay type: functional
BJ [15] = assay: cytotoxicity toward BJ-TERT fibroblasts, dose response, cell-based, RAS-independent, luminescence (AID 1933); assay type: functional; conditions: Homo sapiens
[16] = biological target: T2, Ubiquitin-conjugating enzyme E2 N (Homo sapiens, UniProt P61088); assay type: functional;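 also: Dose-response confirmation in a TR-FRET assay detecting UBC13-driven polyubiquitin chain formation, inhibition measured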
T2 sequence (P61088 whole entry): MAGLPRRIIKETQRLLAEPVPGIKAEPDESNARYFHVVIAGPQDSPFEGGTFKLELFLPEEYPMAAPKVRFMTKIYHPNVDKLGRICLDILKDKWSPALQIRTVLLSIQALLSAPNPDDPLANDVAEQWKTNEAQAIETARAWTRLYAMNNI

HEK293 = assay: optical interference in Abeta FP readout, dose response, artefact control for IDE activator project, biochemical, fluorescence polarization (AID 588442); assay type: functional, cell-based; conditions: Homo sapiens
BJ [17] = assay: cells; assay type: functional, cell-based; conditions: Homo sapiens
Insulin-degrading enzyme = biological target: T3, Insulin-degrading enzyme (Homo sapiens, UniProt P14735); assay: activators of recombinant IDE enzyme, dose response, counter-screen for IDE activator project, biochemical, fluorescence polarization (AID 588681)
T3 sequence (P14735 whole entry): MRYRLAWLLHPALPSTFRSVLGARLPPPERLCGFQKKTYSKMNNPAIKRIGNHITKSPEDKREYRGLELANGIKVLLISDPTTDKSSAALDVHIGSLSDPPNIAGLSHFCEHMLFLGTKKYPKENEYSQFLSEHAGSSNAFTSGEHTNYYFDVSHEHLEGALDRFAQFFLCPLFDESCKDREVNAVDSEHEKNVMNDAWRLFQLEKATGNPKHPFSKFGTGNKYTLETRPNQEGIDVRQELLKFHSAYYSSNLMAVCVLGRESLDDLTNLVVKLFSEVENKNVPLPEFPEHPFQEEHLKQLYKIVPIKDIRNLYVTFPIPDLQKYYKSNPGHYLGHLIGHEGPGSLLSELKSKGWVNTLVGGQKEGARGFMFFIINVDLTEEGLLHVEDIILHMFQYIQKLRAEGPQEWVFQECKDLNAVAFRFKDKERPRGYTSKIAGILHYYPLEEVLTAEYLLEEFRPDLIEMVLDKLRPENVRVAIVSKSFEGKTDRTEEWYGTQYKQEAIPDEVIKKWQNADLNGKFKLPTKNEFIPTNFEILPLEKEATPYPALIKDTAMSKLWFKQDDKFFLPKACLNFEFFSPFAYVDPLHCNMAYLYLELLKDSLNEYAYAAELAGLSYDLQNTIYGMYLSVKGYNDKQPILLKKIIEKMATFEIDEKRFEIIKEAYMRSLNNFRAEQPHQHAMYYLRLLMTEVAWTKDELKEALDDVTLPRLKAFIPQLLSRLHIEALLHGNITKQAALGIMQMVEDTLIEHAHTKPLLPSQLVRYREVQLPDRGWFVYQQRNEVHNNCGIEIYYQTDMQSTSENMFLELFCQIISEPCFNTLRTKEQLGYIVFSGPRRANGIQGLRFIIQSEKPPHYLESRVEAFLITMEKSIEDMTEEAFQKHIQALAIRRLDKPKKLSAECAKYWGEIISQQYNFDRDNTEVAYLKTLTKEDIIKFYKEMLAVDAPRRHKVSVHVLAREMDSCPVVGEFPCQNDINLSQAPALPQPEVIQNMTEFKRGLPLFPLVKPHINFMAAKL

BJ [18] = assay: cytotoxicity toward Ras-transformed BJeLR fibroblasts, dose response, cell-based, alamar blue fluorescence, cherrypicked samples (AID 2631); assay type: functional; conditions: Homo sapiens;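 also: confirmatory dose-response assay in RAS-dependent BJ fibroblasts engineered with TERT, LT and ST, with cytotoxicity read by fluorescence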
INS1 = assay: beta cell apoptosis inhibitors, cytokine rescue, dose response, luminescence, retest (AID 449756); assay type: functional, cell-based; conditions: Rattus norvegicus;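 also: cell death triggered by IL-1 beta plus TNF-alpha plus IFN-gamma mixture; protective hits raise ATP signal compared with cytokine alone wells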
[19] = mammalian cell cytotoxicity, dose response, cytotoxicity control, plate reader, cherry-pick samples (AID 504397); assay type: functional, cell-based
[20] = inhibitors of PGC1a acetylation in cells, dose response, cell-based, cherry-picked samples (AID 720514); assay type: functional;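 also: potency may reflect raised or lowered acetylation signal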

Compound: CCC(C)NC(=O)c1c(N)n(CCCOC)c2nc3ccccc3nc12 (stereo not given)
IC50 [1]: 15.1 µM (inactive)
IC50 [2]: > 50 µM (not active)

Ki [3]: > 3.16 µM (inactive)
Ki [4]: 0.2 µM (active)
Ki [5]: 0.631 µM (active)
Ki [6]: 0.631 µM (active)
Ki (LIM domain kinase 1): 1.26 µM (active)
Ki [7]: > 6.31 µM (inactive)
Ki [8]: 0.501 µM (active)
Ki [9]: > 7.94 µM (inactive)
Ki (Aurora kinase A): 5.01 µM (active)
Ki [10]: > 2.51 µM (inactive)
Ki [11]: > 5.01 µM (inactive)
Ki [12]: > 6.31 µM (inactive)
Ki [13]: 3.16 µM (active)
Ki [14]: > 7.94 µM (inactive)
Compound: CC(=NNC(=N)N)c1cc(NC(=O)NCCCCCCNC(=O)Nc2cc(C(C)=NNC(=N)N)cc(C(C)=NNC(=N)N)c2)cc(C(C)=NNC(=N)N)c1

Compound: Cc1cc(N)c2cc(NC(=O)/C=C/c3ccccc3Cl)ccc2n1
EC50 (BJ [15]): 2.62 µM (inconclusive)
IC50 [16]: 3.5 µM (active)
EC50 (HEK293): > 54.7 µM (inactive)
EC50 (BJ [17]): 4.79 µM (inconclusive)
EC50 (Insulin-degrading enzyme): > 54.7 µM (inactive)
EC50 (BJ [18]): 0.704 µM (inconclusive)
AC50 (INS1): 3.83 µM (active)
AC50 [19]: 4.26 µM (active)
AC50 [20]: 1.97 µM (active)
